DBAASP
Converted amounts (≈) assume the structure as drawn. Each block holds one compound with its values, some of them ahead of it.

How the values were obtained:
Experiment in all cases: ≥ marks a high value that may be exact or a test limit, other limits are often not marked, values filed in µg/mL are converted to µM
[1] = test system: Pseudomonas aeruginosa ATCC 9027
[2] = test system: Escherichia coli KCTC 2433
[3] = test system: Klebsiella pneumoniae ATCC 10031
[4] = test system: Proteus mirabilis ATCC 25933
[5] = test system: Candida albicans ATCC 36232
[6] = test system: Micrococcus luteus ATCC 4698
[7] = test system: Shigella dysenteriae ATCC 9752
[8] = test system: Staphylococcus epidermidis ATCC 12228
[9] = test system: Bacillus subtilis ATCC 6633
[10] = test system: Staphylococcus aureus KCTC 3881
Staphylococcus aureus = test system: Staphylococcus aureus
Bacillus subtilis = test system: Bacillus subtilis
Acinetobacter sp. = test system: Acinetobacter sp.
Pseudomonas aeruginosa = test system: Pseudomonas aeruginosa
[11] = test system: Escherichia coli ATCC 25922
[12] = test system: Staphylococcus aureus ATCC 25923
[13] = test system: Pseudomonas aeruginosa ATCC 27853
Klebsiella pneumoniae = test system: Klebsiella pneumoniae
Escherichia coli = test system: Escherichia coli
Pseudomonas sp. = test system: Pseudomonas sp.
Citrobacter sp. = test system: Citrobacter sp.
[14] = test system: Staphylococcus aureus ATCC 29231
[15] = test system: Candida albicans ATCC 10231
[16] = test system: Staphylococcus aureus MW2
[17] = test system: Acinetobacter baumannii ATCC 7978
[18] = test system: Klebsiella aerogenes ATCC 13048
[19] = test system: Acinetobacter baumannii LMG 01041
Escherichia coli UB1005 = test system: Escherichia coli UB1005
[20] = test system: Staphylococcus aureus USA 100
[21] = test system: Malassezia furfur KCTC 7744
[22] = test system: Enterococcus faecalis ATCC 29212
[23] = test system: Salmonella enterica serovar Typhimurium
[24] = test system: Klebsiella pneumoniae LMG 20218
[25] = test system: Staphylococcus epidermidis
[26] = test system: Pseudomonas aeruginosa LMG 6395
[27] = test system: Mycobacterium tuberculosis H37Rv
[28] = test system: Escherichia coli LMG 15862
[29] = test system: Pseudomonas aeruginosa PAO1 H103
[30] = test system: Pseudomonas aeruginosa H103
Candida albicans = test system: Candida albicans
[31] = test system: Trichosporon beigelii KCTC 7707
[32] = test system: Klebsiella aerogenes LMG 02094
[33] = test system: Staphylococcus aureus USA 300
[34] = test system: Staphylococcus aureus ATCC 29213
[35] = test system: Candida parapsilosis ATCC 22019
[36] = test system: Escherichia coli KCCM 11569
[37] = test system: Bacillus subtilis KCCM 11495
[38] = test system: Saccharomyces cerevisiae AS2.430

SMILES: CC[C@H](C)[C@H](NC(=O)[C@H](CC(C)C)NC(=O)[C@@H](N)Cc1ccccc1)C(=O)NCC(=O)N[C@@H](CCSC)C(=O)N[C@H](C(=O)N[C@@H](Cc1cnc[nH]1)C(=O)NCC(=O)N[C@@H](CC(C)C)C(=O)N[C@H](C(=O)N[C@H]1CSSC[C@@H](C(=O)O)NC(=O)[C@H](CCCCN)NC(=O)[C@H](CCCN=C(N)N)NC(=O)[C@H](CO)NC(=O)[C@H]([C@@H](C)CC)NC(=O)[C@H](CC(C)C)NC1=O)[C@@H](C)CC)[C@@H](C)O [FLIGMTHGLICLISRKC]
MIC [1]: > 52.5 µM | MIC [2]: ≥ 52.5 µM | MIC [3]: ≥ 52.5 µM | MIC [4]: ≥ 52.5 µM | MIC [5]: ≥ 52.5 µM | MIC [6]: 6.56 µM (≈ 12.5 µg/mL) | MIC [7]: ≥ 52.5 µM | MIC [8]: 31.5 µM (≈ 59.9 µg/mL) | MIC [9]: 26.2 µM (≈ 49.9 µg/mL) | MIC [10]: 13.1 µM (≈ 25 µg/mL)

SMILES: CC[C@H](C)[C@H](NC(=O)[C@H](CC(C)C)NC(=O)[C@H](CCCN=C(N)N)NC(=O)[C@H](CC(C)C)NC(=O)[C@H](CCCCN)NC(=O)CN)C(=O)N[C@@H](CCCCN)C(=O)N[C@@H](CCCCN)C(=O)N[C@@H](CC(C)C)C(=O)N[C@@H](Cc1c[nH]c2ccccc12)C(=O)N[C@H](C(=O)N[C@@H](CCCCN)C(=O)N[C@@H](CCCCN)C(=O)N[C@@H](Cc1c[nH]c2ccccc12)C(=O)N[C@@H](CCCCN)C(=O)N[C@@H](CCCCN)C(=O)N[C@@H](CCCCN)C(=O)NCC(=O)N[C@@H](Cc1c[nH]c2ccccc12)C(=O)N[C@@H](CCCCN)C(=O)N[C@@H](C)C(N)=O)C(C)C [GKLRLIKKLWVKKWKKKGWKA]
MIC (Staphylococcus aureus): 4 µM (≈ 10.5 µg/mL) | MIC (Bacillus subtilis): 2 µM (≈ 5.24 µg/mL) | MIC (Acinetobacter sp.): 2 µM (≈ 5.24 µg/mL) | MIC (Pseudomonas aeruginosa): 2 µM (≈ 5.24 µg/mL) | MIC [11]: 2 µM (≈ 5.24 µg/mL) | MIC [12]: 2 µM (≈ 5.24 µg/mL) | MIC [13]: 2 µM (≈ 5.24 µg/mL) | MIC (Klebsiella pneumoniae): 2.83 µM (≈ 7.42 µg/mL) | MIC (Escherichia coli): 2 µM (≈ 5.24 µg/mL) | MIC (Pseudomonas sp.): 2 µM (≈ 5.24 µg/mL) | MIC (Citrobacter sp.): 2 µM (≈ 5.24 µg/mL)

SMILES: CC(C)C[C@H](NC(=O)[C@H](CO)NC(=O)CNC(=O)[C@H](CCC(=O)O)NC(=O)[C@H](CC(C)C)NC(=O)[C@H](CCC(=O)O)NC(=O)[C@H](C)NC(=O)[C@H](CCC(N)=O)NC(=O)[C@H](CO)NC(=O)[C@H](CCC(=O)O)NC(=O)[C@H](CCC(=O)O)NC(=O)[C@@H](N)Cc1ccc(O)cc1)C(=O)N[C@@H](CCCCN)C(=O)O [YEESQAELEGSLK]
MIC [11]: 211 µM (≈ 313 µg/mL) | MIC [38]: ≥ 6750 µM | MIC [12]: 211 µM (≈ 313 µg/mL)

Second part, the compound after the results:

MIC [14]: 14.3 µM (≈ 32 µg/mL) | MIC [15]: 28.6 µM (≈ 64 µg/mL) | MIC [16]: 28.6 µM (≈ 64 µg/mL) | MIC [17]: ≥ 57.2 µM | MIC [18]: ≥ 57.2 µM
SMILES: CC[C@H](C)[C@H](NC(=O)[C@H](CCCCN)NC(=O)[C@H](CCCCN)NC(=O)[C@H](CC(C)C)NC(=O)[C@@H](NC(=O)[C@H](CCCCN)NC(=O)[C@H](Cc1c[nH]c2ccccc12)NC(=O)[C@@H](N)CC(C)C)[C@@H](C)CC)C(=O)N[C@@H](Cc1c[nH]c2ccccc12)C(=O)N[C@@H](CCCN=C(N)N)C(=O)N[C@H](C(=O)N[C@@H](CC(C)C)C(=O)N[C@@H](Cc1c[nH]c2ccccc12)C(=O)N[C@@H](CC(N)=O)C(=O)N[C@@H](Cc1c[nH]c2ccccc12)C(=O)N[C@@H](CCCN=C(N)N)C(=O)O)C(C)C [LWKILKKIWRVLWNWR]

MIC [1]: 12.5 µM (≈ 14.8 µg/mL) | MIC [19]: 2 µM (≈ 2.37 µg/mL) | MIC (Escherichia coli UB1005): 1.69 µM (≈ 2 µg/mL) | MIC [20]: 6.25 µM (≈ 7.4 µg/mL) | MIC [21]: 25 µM (≈ 29.6 µg/mL) | MIC [22]: 1.69 µM (≈ 2 µg/mL) | MIC [23]: 6.75 µM (≈ 7.99 µg/mL) | MIC [24]: 6 µM (≈ 7.1 µg/mL) | MIC [11]: 3.38 µM (≈ 4 µg/mL) | MIC [25]: 1.69 µM (≈ 2 µg/mL) | MIC [12]: 1.69 µM (≈ 2 µg/mL) | MIC [26]: 3 µM (≈ 3.55 µg/mL) | MIC [27]: 2.2 µM (≈ 2.6 µg/mL) | MIC [28]: 3 µM (≈ 3.55 µg/mL) | MIC [29]: 3.38 µM (≈ 4 µg/mL) | MIC [30]: 6.75 µM (≈ 7.99 µg/mL) | MIC (Candida albicans): 6.75 µM (≈ 7.99 µg/mL) | MIC [31]: 12.5 µM (≈ 14.8 µg/mL) | MIC [32]: 5 µM (≈ 5.92 µg/mL) | MIC [33]: 6.25 µM (≈ 7.4 µg/mL) | MIC [34]: 6.75 µM (≈ 7.99 µg/mL) | MIC [35]: 12.5 µM (≈ 14.8 µg/mL)
SMILES: CC[C@H](C)[C@H](NC(=O)[C@@H](NC(=O)[C@H](Cc1c[nH]c2ccccc12)NC(=O)[C@@H](NC(=O)[C@@H](N)CCCN=C(N)N)[C@@H](C)CC)C(C)C)C(=O)N[C@@H](Cc1c[nH]c2ccccc12)C(=O)N[C@@H](CCCN=C(N)N)C(=O)N[C@@H](CCCN=C(N)N)C(N)=O [RIWVIWRR]

MIC [36]: 25.9 µM (≈ 45.2 µg/mL) | MIC [37]: 6.48 µM (≈ 11.3 µg/mL)
SMILES: CC(C)C[C@H](NC(=O)CNC(=O)[C@H](Cc1cnc[nH]1)NC(=O)[C@H](Cc1cnc[nH]1)NC(=O)[C@H](CC(C)C)NC(=O)[C@H](CC(C)C)NC(=O)[C@H](C)NC(=O)[C@H](CC(N)=O)NC(=O)[C@H](CC(C)C)NC(=O)[C@@H](N)Cc1c[nH]c2ccccc12)C(=O)N[C@@H](CC(N)=O)C(=O)N[C@@H](CS)C(=O)N[C@@H](C)C(=O)N[C@@H](CCCCN)C(=O)NCC(=O)N[C@H](C(N)=O)C(C)C [WLNALLHHGLNCAKGV]
